We go through 23 compounds from PubChem BioAssay (NCI).

“And” between values parts separate entries of the source, which are not always exact repeats. Equal entries are not always repeated.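 How tested: cells in 96-well plates exposed to compound for 48 hours at five concentrations. GI50 is the concentration that inhibits growth by half. Definition used: TGI = concentration required for complete inhibition of growth.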 Where only a bound is given, the exact number is not on record here.

Assay in all cases: NCI anticancer screen, dose series, 48 h
Test [1] relates to MOLT-4 leukemia.
Test [2] relates to HL-60(TB) leukemia.
The test system of test [3] is SR leukemia.
Test [4] deals with OVCAR-3 ovarian.
Test [5] relates to HCC-2998 colon.
Test [6] relates to DMS 273 small cell lung.
Test [7] relates to XF 498 CNS.
The test system of test [8] is SNB-75 CNS.
Test [9] has as its system SNB-78 CNS.
In test [10] the test system is DU-145 prostate.

`O=S(=O)(C1=CC(S(=O)(=O)c2ccccc2)COC1)c1ccccc1` (stereo unspecified): the TGI in test [1], in [2], in test [3], in test [4], in test [5] and in test [6] was above 100 µM each time. Moreover, the TGI in test [7] and in test [8] was above 100 µM each time.

As to `c1ccc2c(c1)[nH]c1cnc3c4ncccc4[nH]c3c12`, the TGI is 97.6 µM in [1]; above 100 µM in [2]; above 100 µM in [4]; above 100 µM in test [5]; above 100 µM in test [6]; above 100 µM in [7]. The TGI in [9] and in test [8] was above 100 µM throughout.

Take `CC(C)N(C(=O)C12C3C4C1C1C2C3C41C(=O)C(C)(C)C)C(C)C` (stereo unspecified): the TGI in test [1] was above 100 µM; in [2], 63.7 µM; in [4] it was above 100 µM; in test [5] it was above 100 µM; in test [6], above 100 µM; in [7], above 100 µM. For the same compound, the TGI in [9] and in [8] was above 100 µM throughout.

For `Nc1cn(C2OC(CC(c3ccccc3)(c3ccccc3)c3ccccc3)C(O)C2O)c(=O)[nH]c1=O` (stereo unspecified), the TGI was 63.4 µM in [1]; 36.9 µM in test [2]; 39.9 µM in test [3]; 37.9 µM in [4]; 64.4 µM in test [5]; above 100 µM in test [6]. Besides, the TGI in test [7] was 46.5 µM; in test [9] it was above 100 µM; in [8], above 100 µM.

On to `Cc1noc2cccc(O)c12`, for which the TGI in test [1], in test [2], in test [4], in test [5], in test [6] and in test [7] was above 100 µM each time. The TGI in test [9] and in test [8] was above 100 µM each time.

Take `CC(=O)OC1C[C@H]2C(OC(=O)c3ccccc3)C3C4(OC(C)=O)COC4C[C@H](OC(C)=O)[C@@]3(C)C(OC(C)=O)[C@H](OC(C)=O)C(=C1C)C2(C)C` (stereo partly specified): the TGI was above 100 µM in test [1]; 72 µM in test [2]; above 100 µM in test [4]; above 100 µM in test [6]; 63.8 µM in test [7]; above 100 µM in [9]. This compound displayed a TGI in [8] of 45.2 µM.

Turning to `C[C@H]1CCC/C=C/C2CC(OC(=O)CN(C)C)CC2C(OC(=O)CN(C)C)/C=C/C(=O)O1` (stereo partly specified), the GI50 was 0.357 µM in [1]; 0.682 µM in [2]; 0.38 µM in [3]; 0.428 µM in test [4]; 0.215 µM in [5]; 0.615 µM in test [10]. For the same compound, the GI50 in [6] is 3.77 µM; in test [7], 0.179 µM; in test [9], 0.227 µM; in test [8] it was 0.0567 µM. For the same compound, the TGI in test [1] was 5.44 µM; in test [2], 7.47 µM; in test [3] it was 10.1 µM; in test [4] it was 3.2 µM; in test [5] it was 0.537 µM; in test [10], above 100 µM. The TGI in test [6] is 27.7 µM; in test [7] it was 1.42 µM; in test [9], above 100 µM.

With `CCN(CC)CCNc1c2ccccc2nc2cccc([N+](=O)[O-])c12`, the TGI is 0.124 µM in [1]; 0.175 µM in test [2]; 0.0888 µM in test [3]; 0.0241 µM and 0.0621 µM in test [4]; 0.0315 µM and 0.0156 µM in [5]; 0.0146 µM in test [10]. Further, the TGI is 0.0787 µM in [6]; 0.0569 µM and 0.0196 µM in test [7]; 0.13 µM in test [9]; 0.0347 µM in test [8]. The GI50 in test [2] is 0.0104 µM; in test [4], 0.0244 µM; in test [9] it was 0.023 µM.

Take `C/C(=C1/N=C(c2cc([N+](=O)[O-])ccc2Cl)N(c2ccc(Br)cc2)C1=O)c1ccc(N(CCC#N)CCC#N)cc1C`: the TGI in test [1] is above 100 µM; in test [2], 36.3 µM; in test [3], 42.1 µM; in test [4], 99.7 µM; in test [5], 72.1 µM; in [6] it was 43.8 µM. The TGI in test [7], in test [9] and in [8] was above 100 µM in each case.

Consider `O=C(Nc1cccc(C(F)(F)F)c1)C(=O)C(C(=O)c1ccc(Cl)c(Cl)c1)C1OC(=O)c2ccccc21` (stereo unspecified), for which the TGI in test [1], in test [2], in test [3], in test [4], in test [5] and in [6] was above 100 µM in each case. Besides, the TGI in test [7] is above 100 µM; in test [9], above 100 µM; in test [8], 92.3 µM.

With `C/C(NNC(=O)c1ccccc1O)=C1\C=Nc2ccccc2S1`, the TGI was above 100 µM in [1]; 41.9 µM in test [2]; above 100 µM in [3]; above 100 µM in test [4]; 7.45 µM in test [5]; above 100 µM in [6]. Also, the TGI is above 100 µM in test [7], above 100 µM in [9] and 43.8 µM in [8].

Consider `CCOC(=O)c1oc2c(OC)ccc3c2c1CCC3`, for which the TGI in test [1], in [2], in test [3], in test [4], in test [5] and in [6] was above 100 µM each time. For the same compound, the TGI in test [7], in test [9] and in test [8] was above 100 µM in each case.

In the case of `CCc1cccc(C(C)C)c1NC(=O)CC1Sc2ccccc2NC1=O` (stereo unspecified), the TGI is 92.1 µM in test [1]; 50 µM in [2]; 94.4 µM in test [3]; above 100 µM in test [4]; above 100 µM in test [5]; above 100 µM in test [6]. The TGI in test [7], in [9] and in test [8] was above 100 µM each time.

For the compound `O=C1c2c(O)cccc2C(C(=O)CCCCCC(=O)C2c3cccc(O)c3C(=O)c3c(O)cccc32)c2cccc(O)c21`, the GI50 in test [1] is 10.8 µM; in test [4], 1.73 µM; in test [5], 2.83 µM; in test [9], 7.55 µM; in test [8], 1.69 µM. Besides, the TGI was 25 µM and 27.6 µM in [1]; 5.35 µM and 4.77 µM in [2]; 4.33 µM in test [3]; 3.19 µM and 5.98 µM in test [4]; 25 µM and 12.7 µM in test [5]; 13.3 µM in test [6]. The TGI in test [7] is 1.2 µM; in test [8] it was 6.15 µM and 7.22 µM.

Turning to `CCCCCCCCSC(=O)NCCCC`, the TGI in test [1] is 87 µM; in test [2], 41.3 µM; in test [4], above 100 µM; in [6], above 100 µM; in test [7], 47.2 µM; in test [8], 84.7 µM.

With `CC(Oc1cc2oc(=O)cc(-c3ccccc3)c2cc1Cl)C(=O)O` (stereo unspecified), the TGI in test [1], in test [2], in [3], in test [4], in test [5] and in [7] was above 100 µM throughout. Besides, the TGI in test [9] and in test [8] was above 100 µM each time.

Take `Cc1cccc(C(C)(C)C)c1NC(=O)C(C#N)C1=C(Cl)C(=O)c2ccccc2C1=O` (stereo unspecified): the TGI in test [1] was 22.6 µM; in test [2] it was 26 µM; in test [3], above 100 µM; in test [4] it was 31.4 µM; in test [5], 29.7 µM; in test [10], 36.5 µM. Besides, the TGI in test [6] was found to be 36.2 µM; in [7] it was 29.4 µM; in [9], 33.1 µM; in test [8] it was 27.6 µM.

For the compound `Cc1cc(=O)oc2c(C3=NN(C=O)C(c4ccccc4)C3)c(O)ccc12` (stereo unspecified), the TGI in test [1], in [2], in test [3], in test [4], in [5] and in [10] was above 100 µM throughout. The TGI was above 100 µM in [6], 42.1 µM in test [7], above 96 µM in [9] and 17.2 µM in [8].

Consider `NCCOc1ccc(/C(=C(/Cl)c2ccccc2)c2ccccc2)cc1`, for which the TGI is 14.7 µM in test [1]; 7.61 µM in test [2]; 12.1 µM in test [3]; 26.2 µM in [4]; 14.8 µM in test [5]; 25.5 µM in test [6]. Further, the TGI was determined as 17.6 µM in test [7], 25 µM in test [9] and 24.1 µM in test [8].

On to `Cc1ccccc1/C=C/c1csnn1`, for which the TGI in [1] is above 100 µM; in test [2] it was 39 µM; in [3], above 100 µM; in test [4], above 100 µM; in test [5], above 100 µM; in test [6], above 100 µM. The TGI in [7], in [9] and in test [8] was above 100 µM throughout.

Turning to `CCCCC(C(=O)C(=O)Nc1ccc(C)cc1C)C(=O)C(C)C` (stereo unspecified), the TGI in test [1], in [2], in test [4], in test [5], in [6] and in [7] was above 100 µM in each case. In addition, the TGI in [9] and in [8] was above 100 µM each time.

`CC(=O)Nc1ccccc1-c1nc2ccccc2nc1-c1ccccc1`: the TGI in [1], in test [2], in test [3], in test [4], in test [5] and in test [6] was above 100 µM in each case. Moreover, the TGI in test [7], in [9] and in test [8] was above 100 µM each time.

As for `C[N+]1=C(c2cccnc2/C=N/O)OCC1(C)C`, the TGI in test [1], in test [2], in test [3], in [4], in test [5] and in test [6] was above 100 µM in each case. Moreover, the TGI in test [7], in test [9] and in test [8] was above 100 µM each time.
